{
  "source": "patent US20100273189A1",
  "about": "“NON SEPARATION ASSAYS WITH SELECTIVE SIGNAL INHIBITORS” (BECKMAN COULTER, INC., priority 2009, published 2010)",
  "key": {"HRP": {"target": "T1, HRP (Armoracia rusticana, UniProt P00433)", "T1 construct": "purchased Roche Diagnostics, Indianapolis, Ind., USA", "T1 sequence (P00433 31-338 limits assumed)": "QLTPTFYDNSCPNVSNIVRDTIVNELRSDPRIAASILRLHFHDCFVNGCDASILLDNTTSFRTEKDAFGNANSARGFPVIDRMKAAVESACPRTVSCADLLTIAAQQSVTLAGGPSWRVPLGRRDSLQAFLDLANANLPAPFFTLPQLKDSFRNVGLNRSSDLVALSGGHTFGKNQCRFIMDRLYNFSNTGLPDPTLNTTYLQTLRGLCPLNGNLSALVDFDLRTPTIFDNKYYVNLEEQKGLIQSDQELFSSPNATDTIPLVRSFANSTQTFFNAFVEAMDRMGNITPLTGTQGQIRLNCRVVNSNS", "assay": "HRP model system on PMMA particles, with and without ascorbic acid", "format": "biochemical", "details": "200 μM Ascorbate; for RLU: replicates", "protocol": "In order to further investigate the effect of specific solid phase particles on the assays described herein, a comparison of a variety of particle types was conducted, including silica, polymethylmethacrylate (PMMA). Carboxyl modified PMMA particles (PolyAn GmbH, Berlin) were labeled with AK and biotin as described in Example 3, followed by coating with streptavidin. Silica particles were reacted with 3-aminopropylsiloxane in 1 mM acetic acid to provide an amine reactive group. The amine functional groups were reacted with AK-3 and biotin-LC-sulfoNHS, followed by coating with streptavidin.\nSignal generation with Silica and PMMA particles. Assays using the HRP model system, as generally described in Example 1, were conducted on silica particles and PMMA particles, with and without ascorbic acid in the reaction mixture. The assays were run on a modified DxI instrument as described above. The assay conditions consisted of combining 45 μL BUFFER II (with or without ascorbic acid), 25 μL of particle suspension, and 15 μL of sample and incubating for 30 min. Then 100 μL of trigger solution A was added to the reaction vessel and the light intensity was recorded."}, "biotinylated HRP": {"target": "T2, biotinylated HRP (Armoracia rusticana, UniProt P00433)", "T2 construct": "purchased Roche Diagnostics, Indianapolis, Ind., USA", "T2 sequence (P00433 31-338 limits assumed)": "T1 sequence (P00433 31-338 limits assumed)", "assay": "Model system for selection of SSIA (M280 btn-BSA-AK1-streptavidin particles + Btn-HRP:HRP)", "format": "biochemical"}},
  "note": "Values joined by “and” are separate entries in the source; they are usually repeats but may differ in a detail not shown here. Equal entries are not always repeated.",
  "data": [
    {"smiles": "O=C1O[C@H]([C@@H](O)CO)C(O)=C1O", "note": "[Ascorbic Acid, Ascorbic acid]", "values": [
      {"measurement": "Mean RLU", "setting": "HRP; HRP 0 ng/ml", "value": "20,135 RLU"},
      {"measurement": "S/S0", "setting": "HRP; HRP 0 ng/ml", "value": 1.0},
      {"measurement": "RLU", "setting": "HRP; HRP 0 ng/ml", "value": "20,656 RLU and 19,436 RLU and 20,312 RLU"},
      {"measurement": "Mean RLU", "setting": "HRP; HRP 1 ng/ml", "value": "118,472 RLU"},
      {"measurement": "S/S0", "setting": "HRP; HRP 1 ng/ml", "value": 5.9},
      {"measurement": "RLU", "setting": "HRP; HRP 1 ng/ml", "value": "116,596 RLU and 116,308 RLU and 122,512 RLU"},
      {"measurement": "Mean RLU", "setting": "HRP; HRP 10 ng/ml", "value": "2,061,780 RLU"},
      {"measurement": "S/S0", "setting": "HRP; HRP 10 ng/ml", "value": 102.4},
      {"measurement": "RLU", "setting": "HRP; HRP 10 ng/ml", "value": "2,066,824 RLU and 2,171,080 RLU and 1,947,436 RLU"},
      {"measurement": "Mean RLU", "setting": "HRP; HRP 100 ng/ml", "value": "12,093,261 RLU"},
      {"measurement": "S/S0", "setting": "HRP; HRP 100 ng/ml", "value": 600.6},
      {"measurement": "RLU", "setting": "HRP; HRP 100 ng/ml", "value": "12,257,256 RLU and 11,862,048 RLU and 12,160,480 RLU"},
      {"measurement": "Mean RLU", "setting": "HRP; HRP 250 ng/ml", "value": "12,565,744 RLU"},
      {"measurement": "S/S0", "setting": "HRP; HRP 250 ng/ml", "value": 624.1},
      {"measurement": "RLU", "setting": "HRP; HRP 250 ng/ml", "value": "12,575,032 RLU and 12,552,012 RLU and 12,570,188 RLU"},
      {"measurement": "S/S0", "setting": "biotinylated HRP; Btn-HRP 0 ng/mL vs 0, SSIA 100 μM", "value": 1},
      {"measurement": "B-HRP0 light intensity", "setting": "biotinylated HRP; Btn-HRP 0 ng/mL, total HRP 500 ng/mL, SSIA final 100 μM", "value": "151 and 97"},
      {"measurement": "S1/S0", "setting": "biotinylated HRP; Btn-HRP 1 ng/mL vs 0, SSIA 100 μM", "value": "6.6 and 7.8"},
      {"measurement": "B-HRP1 light intensity", "setting": "biotinylated HRP; Btn-HRP 1 ng/mL, total HRP 500 ng/mL, SSIA final 100 μM", "value": "995 and 757"},
      {"measurement": "S2/S0", "setting": "biotinylated HRP; Btn-HRP 10 ng/mL vs 0, SSIA 100 μM", "value": "216.2 and 171.6"},
      {"measurement": "B-HRP10 light intensity", "setting": "biotinylated HRP; Btn-HRP 10 ng/mL, total HRP 500 ng/mL, SSIA final 100 μM", "value": "32,568 and 16,641"},
      {"measurement": "S3/S0", "setting": "biotinylated HRP; Btn-HRP 100 ng/mL vs 0, SSIA 100 μM", "value": "30222.2 and 38064.9"},
      {"measurement": "B-HRP100 light intensity", "setting": "biotinylated HRP; Btn-HRP 100 ng/mL, total HRP 500 ng/mL, SSIA final 100 μM", "value": "4,553,473 and 3,692,291"},
      {"measurement": "S4/S0", "setting": "biotinylated HRP; Btn-HRP 250 ng/mL vs 0, SSIA 100 μM", "value": "59176.1 and 62228.3"},
      {"measurement": "B-HRP250 light intensity", "setting": "biotinylated HRP; Btn-HRP 250 ng/mL, total HRP 500 ng/mL, SSIA final 100 μM", "value": "8,915,869 and 6,036,145"},
      {"measurement": "effect in the model system / utility as SSIA", "setting": "biotinylated HRP; SSIA 100 μM, conclusion in words", "value": "demonstrating utility as SSIA"}
    ]}
  ]
}
